SMILES strings stand for the structures. Like-named read-outs stand apart in the source and are kept apart here.

In assay [1] the test system is isolated human hair follicles. Description: In vitro hair follicle growth test: growth at varied cysteine concentration (Example 1). The format is cell-based. To be noted: concentration of cysteine + cystine (half cystine) varied in supplemented Williams E medium. Here is the method: The effect of cysteine on hair diameter was assessed using an in vitro test which uses isolated human hair follicles in a culture medium.
Human hair follicles were isolated from scalp skin by the methods described by Philpott et al J Cell Science 97 463-471, 1990. […] Follicles isolated in this way were cultured as described by Westgate et al Br. J. Dermatol 129 372-379, 1993 in a completely defined culture medium called Williams E medium (obtainable from ICN FLOW), the latter supplemented with antibiotics, glutamine, hydrocortisone and Insulin. In this example the concentration of cysteine + cystine (referred to as half cystine) was varied and the daily rate of growth of follicles measured.

Assay [2] deals with isolated human hair follicles. Nature of the assay: Growth of follicles moved from lower to higher cysteine medium (Example 3). It counts as cell-based. To be noted: 2 days in medium with lower cysteine, then moved to medium with a higher amount of cysteine. Here is the method: Human hair follicles were isolated as described in Example 1 and placed into culture in Williams E medium formulated to contain a lower concentration of cysteine. Follicles were cultured for 2 days in this medium then transferred to medium containing a higher amount of cysteine.

For assay [3], the system named is isolated human hair follicles. Description: Fibre diameter after change from lower to higher cysteine concentration (Example 5). It counts as cell-based. Here is the method:
Follicles were isolated as described in Example 1 and cultured as described in Example 3. Fibres were isolated and diameter measured as described in Example 4. […] The change in diameter was calculated by taking, firstly the diameter at the narrowest part of the fibre for each of the three treatments and secondly the diameter of the fibre during growth after addition of cysteine - deemed to be the in vitro diameter, and taking the ratio of these to the in vivo diameter.

In assay [4] the test system is isolated human hair follicles. Description: Diameter of hair fibres grown in vitro, Laser Scan Micrometer (Example 4). It counts as cell-based. To be noted: range of cysteine concentrations, 7-11 days of culture. Here is the method:
Follicles were isolated as described in Example 1 and placed into culture in supplemented Williams E medium containing a range of concentrations of cysteine. Following several days of culture(7-11), follicles were removed from the medium and the fibres isolated from the follicles as described above. The diameter of the fibres was measured using a modified Laser Scan Micrometer (Mitotoyu) coupled to a moving jig which was capable of rotating the fibre through 180° and moving the fibre through the laser beam at intervals of 0.2mm. Each isolated fibre contained a small part which was formally grown in vivo, the diameter of this "in vivo" end of the fibre. The diameter of the fibre grown in vitro was measured at intervals of 0.2mm along the fibre. For estimation of the effect of different media concentrations of cysteine on diameter, the average in vitro diameter was compared across the treatment concentrations of cysteine and the ratio of in vitro diameter to in vivo diameter was calculated.

The test system of assay [5] is isolated human hair follicles. Description: Incorporation of radiolabelled cysteine into hair fibre in vitro (Example 2). The format is cell-based. To be noted: 5 hours with a range of cysteine concentrations, partly radiolabelled; 48 hours chase; liquid scintillation counting of the fibre. Here is the method: Follicles were isolated as described in Example 1 and cultured for 5 hours in the presence of a range of concentrations of cysteine, a small proportion of which was radiolabelled. After 5 hours the follicles were transferred to normal supplemented Williams E medium to "chase" the radioactivity into the fibre being grown in the follicle, for 48 hours. The hair fibre was isolated from each follicle using a combination of detergent and enzyme and the 'naked' fibre dissolved and subjected to liquid scintillation counting.

The subject of the next assay is sheep. To be noted: cited from earlier work; for sulphur content of the "new" wool / wool growth: abomasal or intravenous infusion, sheep consuming roughage-based diets; for increase in fibre diameter: cysteine infusion, sheep wool.

For the compound `N[C@@H](CS)C(=O)O` [cysteine], the “daily rate of growth of follicles” value in assay [1] is reported as “growth increases with cysteine concentration in the medium”. Besides, the growth rate result in assay [2] is “increasing their growth rate”. In addition, the “diameter of the fibre” value in assay [3] (after transfer to the higher concentration of cysteine (495.0µM)) is “increased again”. Also, in assay [3] (follicles where the cysteine concentration was reversed), the “change in diameter (ratio to the in vivo diameter)” value was “the fibre diameter was similarly reversed”. In addition, the “diameter of the fibre” value in assay [3] (lower concentration of cysteine (9.0µM), compared with the in vivo diameter) is given as “decreased from the in vivo diameter”. Moreover, in assay [4], the “diameter of the fibres” value was “dependent on the concentration of cysteine available to the follicles”. The “Incorporation of cysteine into human hair in vitro” value in assay [5] is on record as “concentration dependent”. Further, in the assay on sheep, the “sulphur content of the "new" wool” value was “increased”, the wool growth result was “stimulates wool growth” and the “increase in fibre diameter” value was 5-10%. Moreover, in the assay on sheep (typical value), the “increase in fibre diameter” value is reported as 1-3 µm.
`CSCC[C@H](N)C(=O)O` [methionine, reference compound]: in the assay with sheep, the “sulphur content of the "new" wool” value is “increased” and the wool growth result was “stimulates wool growth”.
